We go through 7 molecules from patent US4849436A, “1,4-dihydropyridines” (Nelson Research & Development Co., priority 1986, dated 1989).

This assay concerns the target T1, dihydropyridine (DHP) site (Oryctolagus cuniculus, UniProt P07293).
T1 construct: Washed rabbit skeletal muscle membranes (fraction 2-8X); from tissue; host or cells: rabbit skeletal muscle, washed membranes (fraction 2-8X)
The experiment in a line: 3H-nitrendipine binding assay on washed rabbit skeletal muscle membranes. Conditions: read-out: Binding Assay KI (moles). The protocol: The incubation tubes were rapidly chilled in ice and the contents filtered through Whatman GF/B filters on a Millipore manifold, and the filters washed with 2×10 ml ice-cold HEPES buffer. The filters were placed in scintillation counting vials with 8 ml of Cytoscint cocktail, disrupted mechanically by shaking for 30 minutes and counted.
Drugs which interact at the dihydropyridine (DHP) site will reduce this specific binding in a dosedependent manner. The assays for the compounds of this invention were made with logarithmically spaced concentrations, the data were plotted on a probitconcentration plot, and the IC50 read off. The KI of the compound was calculated by standard techniques.

Structures are written as SMILES.

T1 sequence (P07293 1-1664 limits assumed): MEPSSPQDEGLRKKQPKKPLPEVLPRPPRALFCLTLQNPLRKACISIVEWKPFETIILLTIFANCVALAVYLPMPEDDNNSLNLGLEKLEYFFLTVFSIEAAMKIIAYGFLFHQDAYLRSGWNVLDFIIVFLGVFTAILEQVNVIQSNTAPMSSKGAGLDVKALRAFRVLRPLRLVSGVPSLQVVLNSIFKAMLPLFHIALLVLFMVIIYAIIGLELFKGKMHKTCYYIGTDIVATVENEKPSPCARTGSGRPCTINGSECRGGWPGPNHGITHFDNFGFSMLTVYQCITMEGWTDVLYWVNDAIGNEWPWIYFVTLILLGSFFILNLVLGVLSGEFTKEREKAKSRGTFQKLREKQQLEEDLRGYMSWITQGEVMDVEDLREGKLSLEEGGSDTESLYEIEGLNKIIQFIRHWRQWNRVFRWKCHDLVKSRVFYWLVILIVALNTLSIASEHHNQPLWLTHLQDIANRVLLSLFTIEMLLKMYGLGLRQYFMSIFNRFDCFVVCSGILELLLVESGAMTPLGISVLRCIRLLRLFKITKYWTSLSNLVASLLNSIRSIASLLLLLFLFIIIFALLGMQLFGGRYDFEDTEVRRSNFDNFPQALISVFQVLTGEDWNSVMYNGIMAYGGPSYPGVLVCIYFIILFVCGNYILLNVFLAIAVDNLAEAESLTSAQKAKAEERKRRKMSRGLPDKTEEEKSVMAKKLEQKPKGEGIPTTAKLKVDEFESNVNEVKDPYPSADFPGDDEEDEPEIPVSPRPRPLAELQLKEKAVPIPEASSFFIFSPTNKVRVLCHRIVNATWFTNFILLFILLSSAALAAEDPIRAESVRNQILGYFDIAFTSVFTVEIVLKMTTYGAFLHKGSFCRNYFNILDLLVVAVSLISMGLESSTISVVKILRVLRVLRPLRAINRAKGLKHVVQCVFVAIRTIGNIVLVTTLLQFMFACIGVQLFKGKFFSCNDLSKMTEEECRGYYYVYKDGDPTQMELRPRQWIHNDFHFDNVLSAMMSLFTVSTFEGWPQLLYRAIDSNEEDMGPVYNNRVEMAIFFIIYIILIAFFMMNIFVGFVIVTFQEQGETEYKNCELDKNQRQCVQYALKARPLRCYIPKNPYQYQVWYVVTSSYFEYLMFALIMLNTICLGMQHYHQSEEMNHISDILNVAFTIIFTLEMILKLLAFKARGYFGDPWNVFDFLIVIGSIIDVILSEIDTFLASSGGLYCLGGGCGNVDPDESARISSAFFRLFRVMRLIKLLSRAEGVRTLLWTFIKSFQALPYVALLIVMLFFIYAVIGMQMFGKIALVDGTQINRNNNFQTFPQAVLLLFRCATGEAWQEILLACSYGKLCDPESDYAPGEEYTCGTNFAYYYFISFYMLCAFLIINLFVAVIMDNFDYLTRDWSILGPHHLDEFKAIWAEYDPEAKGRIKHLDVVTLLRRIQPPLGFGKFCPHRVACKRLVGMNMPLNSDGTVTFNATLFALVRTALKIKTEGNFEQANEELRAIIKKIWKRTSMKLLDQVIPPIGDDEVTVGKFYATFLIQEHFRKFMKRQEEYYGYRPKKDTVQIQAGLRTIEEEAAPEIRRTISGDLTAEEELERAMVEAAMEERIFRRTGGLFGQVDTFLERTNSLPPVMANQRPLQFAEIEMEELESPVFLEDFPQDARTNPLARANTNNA
T1 sequence (P13806 27-960 partner limits assumed): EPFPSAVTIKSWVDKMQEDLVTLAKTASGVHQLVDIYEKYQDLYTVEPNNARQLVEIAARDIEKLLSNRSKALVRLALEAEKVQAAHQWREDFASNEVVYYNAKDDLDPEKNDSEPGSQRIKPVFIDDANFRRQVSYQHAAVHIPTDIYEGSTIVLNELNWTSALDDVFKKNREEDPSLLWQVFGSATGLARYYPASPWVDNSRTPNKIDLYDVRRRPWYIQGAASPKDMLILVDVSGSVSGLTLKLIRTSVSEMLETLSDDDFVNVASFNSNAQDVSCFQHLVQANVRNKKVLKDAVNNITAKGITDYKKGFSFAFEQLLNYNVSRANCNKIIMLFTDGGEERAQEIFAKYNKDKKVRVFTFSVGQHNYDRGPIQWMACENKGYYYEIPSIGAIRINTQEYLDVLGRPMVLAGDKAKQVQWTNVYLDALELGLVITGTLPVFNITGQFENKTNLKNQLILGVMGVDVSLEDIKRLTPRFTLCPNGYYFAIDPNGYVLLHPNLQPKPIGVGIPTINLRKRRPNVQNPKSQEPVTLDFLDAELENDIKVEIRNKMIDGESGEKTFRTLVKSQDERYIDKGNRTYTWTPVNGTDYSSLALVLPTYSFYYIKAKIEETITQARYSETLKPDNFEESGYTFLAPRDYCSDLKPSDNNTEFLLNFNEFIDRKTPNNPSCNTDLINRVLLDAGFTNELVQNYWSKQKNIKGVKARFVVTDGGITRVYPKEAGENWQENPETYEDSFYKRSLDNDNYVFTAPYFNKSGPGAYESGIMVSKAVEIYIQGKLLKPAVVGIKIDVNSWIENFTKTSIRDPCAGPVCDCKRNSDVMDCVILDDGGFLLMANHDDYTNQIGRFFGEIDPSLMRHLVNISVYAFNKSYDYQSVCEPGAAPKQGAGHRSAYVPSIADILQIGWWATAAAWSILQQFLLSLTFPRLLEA
T1 sequence (P13806 961-1106 partner limits assumed): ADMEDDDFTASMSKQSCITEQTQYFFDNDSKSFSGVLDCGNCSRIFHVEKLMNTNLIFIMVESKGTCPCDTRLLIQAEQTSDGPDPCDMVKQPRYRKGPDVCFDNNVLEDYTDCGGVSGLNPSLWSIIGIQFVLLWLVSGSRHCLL
T1 sequence (P19517 whole entry partner): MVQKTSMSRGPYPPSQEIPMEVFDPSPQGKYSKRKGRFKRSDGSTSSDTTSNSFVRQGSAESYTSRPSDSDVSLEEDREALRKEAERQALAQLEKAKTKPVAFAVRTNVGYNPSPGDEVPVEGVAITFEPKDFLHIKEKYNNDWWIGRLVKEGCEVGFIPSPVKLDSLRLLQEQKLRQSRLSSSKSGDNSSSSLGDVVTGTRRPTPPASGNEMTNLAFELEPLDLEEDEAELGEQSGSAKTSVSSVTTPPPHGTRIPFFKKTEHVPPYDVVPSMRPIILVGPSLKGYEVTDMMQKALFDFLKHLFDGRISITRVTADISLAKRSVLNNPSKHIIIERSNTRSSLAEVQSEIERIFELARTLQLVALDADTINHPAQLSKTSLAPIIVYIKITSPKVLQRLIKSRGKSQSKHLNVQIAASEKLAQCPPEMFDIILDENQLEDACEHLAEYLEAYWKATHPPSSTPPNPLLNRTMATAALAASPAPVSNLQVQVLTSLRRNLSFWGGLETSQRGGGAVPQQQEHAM
T1 sequence (P19518 whole entry partner): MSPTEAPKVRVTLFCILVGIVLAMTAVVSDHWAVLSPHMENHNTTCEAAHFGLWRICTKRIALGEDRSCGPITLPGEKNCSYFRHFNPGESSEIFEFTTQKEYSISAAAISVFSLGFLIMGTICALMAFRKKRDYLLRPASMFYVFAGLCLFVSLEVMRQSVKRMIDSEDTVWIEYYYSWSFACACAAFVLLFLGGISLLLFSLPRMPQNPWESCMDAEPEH

As usually defined, the Ki is the equilibrium dissociation constant of an inhibitor or competing ligand from its target. Consider `COC(=O)C1=C(C)NC(C)=C(C(=O)OCCN)C1c1cccc([N+](=O)[O-])c1` (stereo not shown) [Example 3, 1,4-Dihydro-2,6-dimethyl-4-(3-nitrophenyl)-3,5-pyridine dicarboxylic acid, 3-(2-aminoethyl)-5-methyl ester], for which the Ki is > 100 nM.

Take `CCOC(=O)C1=C(CCN2C(=O)c3ccccc3C2=O)NC(C)=C(C(=O)OC)C1c1cccc([N+](=O)[O-])c1` (stereo not shown) [12(e), 1,4-Dihydro-6-methyl-4(3-nitrophenyl)2-(2-phthalimidoethyl)-3,5-pyridine dicarboxylic acid-3-ethyl-5-methyl ester]: the Ki amounted to 105 nM.

In the case of `COC(=O)C1=C(C)NC(C)=C(C(=O)OCCN=C=S)C1c1cccc([N+](=O)[O-])c1` (stereo not shown) [Example 7, 1,4-Dihydro-2,6-dimethyl-4-(3-nitrophenyl)-3,5-pyridine dicarboxylic acid, 3-(2isothiocyanatoethyl)-5-methyl ester], the Ki was 1.3 nM.

For the molecule `COC(=O)C1=C(C)NC(C)=C(C(=O)OCCN)C1c1cccc(C)c1` (stereo not shown) [Example 2, 1,4-Dihydro-2,6-dimethyl-4-(3-methylphenyl)-3,5-pyridine dicarboxylic acid, 3-(2-aminoethyl)-5-methyl ester], the Ki came out at 1250 nM.

In the case of `COC(=O)C1=C(C)NC(C)=C(C(=O)OCCCN=C=S)C1c1cccc([N+](=O)[O-])c1` (stereo not shown) [Example 8, 1,4-Dihydro-2.6-dimethyl-4-(3-nitrophenyl)-3,5-pyridine dicarboxylic acid, 3-(3-isothiocyanatopropyl)-5-methyl ester], the Ki is 1.6 nM.

As for `CCOC(=O)C1=C(CCN2C(=O)c3ccccc3C2=O)NC(CCN2C(=O)c3ccccc3C2=O)=C(C(=O)OCC)C1c1cccc([N+](=O)[O-])c1` [Example 13, 1,4-Dihydro-4(3-nitrophenyl)-2,6-(2-phthalimidoethyl)-3,5-pyridine dicarboxylic acid, ethyl ester], the inhibition constant Ki worked out at 1120 nM.

With `COC(=O)C1=C(C)NC(C)=C(C(=O)OCCCCCCN=C=S)C1c1cccc([N+](=O)[O-])c1` (stereo not shown) [Example 9, 1,4-Dihydro-2,6-dimethyl-4-(3-nitrophenyl)-3,5-pyridine dicarboxylic acid, 3-(6-isothiocyanatohexyl)-5-methyl ester], the Ki came out at 1.9 nM.
